Test system: HCT-116 cell lines
Assay: MTT cell proliferation assay
Assay type: cell-based
Procedure: For cell culture experiments various cancer cell lines, HCT-116 colon cancer, U87-MG glial tumor, MCF7 breast cancer cell lines were used. Cells were seeded with high glucose DMEM medium (Biosera) supplemented with 10% FBS (Gibco) and 1× penicillin/streptomycin (Multicell). Twenty-four hours prior to molecule treatment, 10,000 cells were seeded into each well of 24-well cell culture plates. Molecules were used by preparing 4 mM stock solution in DMSO (Amresco). For molecule treatment, molecule stock solutions were diluted in DMEM with 10% FBS and added onto cells in each corresponding well. Final concentration of vehicle DMSO was 2% at maximum. […] We calculated the number of cells to be seeded to make sure that none of the cells reaches more than 60% confluency during the treatment period, as higher plate confluency levels would slow down cell proliferation independently from the molecule treatment.
Values of half-maximal inhibitory concentration were (IC50) determined by MTT cell proliferation assays. […] 570 nm absorbance values were recorded and IC50 values were calculated by dose response—inhibition curves and nonlinear regression analysis on GraphPad Prism 8 software. […] Following the initial incubation day, molecules were added and after incubation with MTT at 37° C. for 4 hours, formazan was solubilized with DMSO (Sigma-Aldrich, St. Louis, USA) and absorbance was measured at 570 nm. […]

IC50 (Homo sapiens, 72 h, HCT-116 colon cancer cells, MTT, single treatment, three days results, absorbance 570 nm, read-out: IC50 (half-maximal inhibitory concentration)): 25 µM
Structure (SMILES): COCCN1C(=O)/C(=C/c2ccc(OCC(=O)Nc3ccc(C)cc3)cc2)S/C1=N\c1ccccc1 [compound of formula I]
proliferation of the HCT-116 cells versus vehicle group (FIG. 1) (HCT-116 cells, compared with vehicle (max 2% DMSO)): reduced proliferation and apoptotic cell structures

— patent publication US12318368B2, “Physics-driven discovery of novel small therapeutic compounds for use as a BCL-2 inhibitor” (BAHCESEHIR UNIVERSITESI, priority 2020, dated 2025)
